Reference: ChEMBL document CHEMBL3727348, “3-(aryl or heteroaryl) methyleneindolin-2-one derivatives as inhibitors of cancer stem cell pathway kinases for the treatment of cancer” (2014)

Assays:
[1] = target: Serine/threonine-protein kinase RIO2 (Homo sapiens) (UniProt Q9BVS4); assay: Inhibition of N-terminal GST-fused full length human recombinant RIOK2 expressed in baculovirus Sf21 cells assessed as reduction in kinase auto-phosphorylation at 10 uM in presence of ATP incubated for 1 hr by ELISA method
[2] = test system: FaDu; assay: Cytotoxic activity against human FADU cancer stem cells incubated for 72 hrs by Cell-titer-Glo luminescence assay; format: functional, cell-based
[3] = test system: FaDu; assay: Cytotoxic activity against human FADU bulk cells incubated for 72 hrs by Cell-titer-Glo luminescence assay; format: functional, cell-based
[4] = test system: ACHN; assay: Cytotoxic activity against human ACHN bulk cells incubated for 72 hrs by Cell-titer-Glo luminescence assay; format: functional, cell-based
[5] = test system: ACHN; assay: Cytotoxic activity against human ACHN cancer stem cells incubated for 72 hrs by Cell-titer-Glo luminescence assay; format: functional, cell-based
[6] = test system: A549; assay: Cytotoxic activity against human A549 bulk cells incubated for 72 hrs by Cell-titer-Glo luminescence assay; format: functional, cell-based; conditions: A549, 72 h
[7] = test system: A549; assay: Cytotoxic activity against human A549 cancer stem cells incubated for 72 hrs by Cell-titer-Glo luminescence assay; format: functional, cell-based; conditions: A549, 72 h
[8] = target: T1, Ribosomal protein S6 kinase (Homo sapiens) (UniProt P51812+Q9UBS0+O75676+Q15349+O75582+P23443+Q9UK32+Q15418); assay: Inhibition of RPS6 kinase in human HeLa cells assessed as p-RPS6 Ser240/244 phosphorylation level at 5 uM incubated for 6 hrs by SDS-PAGE based chemiluminescence assay; format: cell-based; parameters: scale not given: the % may be the effect or the level left
[9] = target: AMP-activated protein kinase, AMPK (Homo sapiens) (UniProt P54646+O43741+P54619+Q9UGJ0+Q9Y478+Q13131+Q9UGI9); assay: Inhibition of AMPK in human HeLa cells assessed as kinase phosphorylation level at 5 uM incubated for 6 hrs by SDS-PAGE based chemiluminescence assay; format: cell-based; parameters: scale not given: the % may be the effect or the level left
[10] = target: T1, Ribosomal protein S6 kinase (Homo sapiens); assay: Inhibition of RPS6 kinase in human HeLa cells assessed as p-RPS6 Ser235/236 phosphorylation level at 5 uM incubated for 6 hrs by SDS-PAGE based chemiluminescence assay; format: cell-based; parameters: scale not given: the % may be the effect or the level left

Sequence of Serine/threonine-protein kinase RIO2 (Homo sapiens) (Q9BVS4 whole entry, looked up, the tested form may be a part): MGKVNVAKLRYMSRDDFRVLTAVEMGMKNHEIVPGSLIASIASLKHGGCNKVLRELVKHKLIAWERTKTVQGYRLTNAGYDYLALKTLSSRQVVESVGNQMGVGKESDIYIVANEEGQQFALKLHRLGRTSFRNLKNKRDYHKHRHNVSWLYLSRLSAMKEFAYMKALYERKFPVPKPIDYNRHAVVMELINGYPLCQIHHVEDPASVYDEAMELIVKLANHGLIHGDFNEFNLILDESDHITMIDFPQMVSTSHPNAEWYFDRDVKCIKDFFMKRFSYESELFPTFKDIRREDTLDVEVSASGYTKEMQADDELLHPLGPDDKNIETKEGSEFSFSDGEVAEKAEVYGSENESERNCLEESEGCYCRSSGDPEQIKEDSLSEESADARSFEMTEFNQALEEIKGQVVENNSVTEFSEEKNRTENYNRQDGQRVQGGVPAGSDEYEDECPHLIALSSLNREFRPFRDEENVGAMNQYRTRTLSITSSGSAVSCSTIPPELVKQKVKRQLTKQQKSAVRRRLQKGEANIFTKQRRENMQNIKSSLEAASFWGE

| inhibition [1] [%] | Activity [8] [%] | Activity [9] [%] | Activity [10] [%] | Compound | IC50 [2] [µM] | IC50 [3] [µM] | IC50 [4] [µM] | IC50 [5] [µM] | IC50 [6] [µM] | IC50 [7] [µM] |
| --- | --- | --- | --- | --- | --- | --- | --- | --- | --- | --- |
| 65 |  |  |  | Cc1[nH]c(/C=C2\C(=O)Nc3ccc(-c4ccc(-c5ccccc5)s4)cc32)c(C)c1C(=O)N1CCN(C)CC1 | 1.16 | 25.4 |  |  |  |  |
|  |  |  |  | CCN(CC)CCNC(=O)c1c(C)[nH]c(/C=C2\C(=O)Nc3ccc(-c4cccc(OC)n4)cc32)c1C | 0.19 | 1.76 | 1.96 | 0.24 | 2.79 | 2.24 |
|  |  |  |  | CCN(CC)CCNC(=O)c1c(C)[nH]c(/C=C2\C(=O)Nc3ccc(-c4nccc5ccccc45)cc32)c1C | 0.03 | 2.13 | 5.05 | 0.71 | 3.18 | 13.9 |
|  |  |  |  | O=C1Nc2ccc(-c3csc(-c4ccncc4)n3)cc2/C1=C/c1cnc[nH]1 | 22.1 | 1.66 | 3.61 | 28.9 | 9.19 | 7.18 |
|  |  |  |  | CCN(CC)CCNC(=O)c1c(C)[nH]c(/C=C2\C(=O)Nc3ccc(-c4cscc4C)cc32)c1C | 9.1 | 3.74 | 2.68 | 0.48 | 2.01 | 3.94 |
|  | 68 | 108 | 36 | Cc1[nH]c(/C=C2\C(=O)Nc3cc(-c4ccc(-c5ccccc5)s4)ccc32)c(C)c1C(=O)N1CCN(C)CC1 |  |  |  |  |  |  |
|  |  |  |  | O=C1Nc2ccc(-c3csc(-c4ccccc4)n3)cc2/C1=C/c1ncc[nH]1 | 2.5 | 7.57 | 1.44 | 2.91 | 17.2 | 2.31 |
| 19 |  |  |  | Cc1[nH]c(/C=C2\C(=O)Nc3ccc(-c4nnc(-c5ccccc5)s4)cc32)c(C)c1C(=O)N1CCN(C)CC1 | 0.23 | 14.1 |  |  | 48.9 |  |
|  |  |  |  | Cc1[nH]c(/C=C2\C(=O)Nc3ccc(-c4csc(-c5ccccc5)n4)cc32)c(C)c1S(=O)(=O)N1CCOCC1 | 0.21 | 11.4 | 10.7 | 0.56 | 7.28 | 3.73 |
|  |  |  |  | O=C1Nc2ccc(-c3csc(C4CCNCC4)n3)cc2/C1=C/c1cc2c([nH]1)CCCC2 | 12 | 21.1 | 18.8 | 2.68 | 9.39 | 22.1 |
|  |  |  |  | Cc1cc(C)c(/C=C2\C(=O)Nc3ccc(-c4n[nH]c5ccccc45)cc32)[nH]1 | 5.33 | 4.43 | 8.73 | 3.1 | 6.45 | 7.28 |
|  |  |  |  | CCN(CC)CCNC(=O)c1c(C)[nH]c(/C=C2\C(=O)Nc3ccc(-c4ncccc4OC)cc32)c1C | 0.07 | 2.63 | 7.14 | 1.41 | 7.48 | 6.84 |
|  |  |  |  | CCN(CC)CCNC(=O)CCc1c(C)[nH]c(/C=C2\C(=O)Nc3ccc(-c4csc(-c5ccccc5)n4)cc32)c1C | 3.53 | 3.85 | 2.48 | 4.23 | 1.11 | 8.74 |
|  |  |  |  | CCN(CC)CCN(C)C(=O)c1c(C)[nH]c(/C=C2\C(=O)Nc3ccc(-c4csc(-c5ccccc5)n4)cc32)c1C | 3.6 | 18.3 | 11.3 | 0.69 | 9.94 | 10.5 |
|  |  |  |  | O=C1Nc2ccc(-c3csc(C4CCNCC4)n3)cc2/C1=C/c1cc2ccccc2[nH]1 | 0.76 | 5.16 | 4.12 | 0.1 | 5.55 | 2.04 |
|  |  |  |  | CCN(CC)CCNC(=O)c1c(C)[nH]c(/C=C2\C(=O)Nc3cc(-c4ccc(O)cc4C)ccc32)c1C | 1.54 | 2.14 | 2.53 | 2.17 | 2.76 | 7.55 |
|  |  |  |  | CCN(CC)CCNC(=O)c1c(C)[nH]c(/C=C2\C(=O)Nc3ccc(-c4cnc5ccccc5n4)cc32)c1C | 0.04 | 2.66 | 5.73 | 5.59 | 8.13 | 42.3 |
|  |  |  |  | CCN(CC)CCNC(=O)c1c(C)[nH]c(/C=C2\C(=O)Nc3ccc(-c4ccc5c(c4)CC(=O)N5)cc32)c1C | 15.5 | 25.4 | 18.9 | 20.8 | 19.7 | 29.2 |
| 79 |  |  |  | Cc1[nH]c(/C=C2\C(=O)Nc3ccc(-c4cnn(-c5ccccc5)c4)cc32)c(C)c1C(=O)NCc1nc2ccccc2[nH]1 |  |  |  |  |  |  |
|  |  |  |  | CCN(CC)CCNC(=O)c1c(C)[nH]c(/C=C2\C(=O)Nc3ccc(-c4ncccc4C)cc32)c1C | 20 | 7.67 | 4.15 | 1.88 | 4.14 | 13.1 |
